This passage reports IC50 results from patent US20180305334A1, “COMPOUNDS, COMPOSITIONS AND METHODS OF USE AGAINST STRESS GRANULES” (Aquinnah Pharmaceuticals, Inc., priority 2015, published 2018).

In the first experiment the test system is TDP-43 aggregation in PC12 cells stably expressing TDP-43^Q331K::eGFP. The experiment in a line: In vitro efficacy assay, TDP-43 aggregation concentration-response. The note with it: Rattus norvegicus, PC-12, inhibition of TDP-43 aggregation; PC12 TDP-43^Q331K::eGFP, 1 hour pre-treatment, 15 μM sodium arsenite for 23 hours; 10-point dose response. The class given is cell-based. The method, boiled down:
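PC12 cells stably expressing TDP-43^Q331K::eGFP pre-treated with compound for 1 h, then stressed with 15 μM sodium arsenite for 23 h. Fluorescence microscopy scored the fraction of GFP-positive cells carrying TDP-43 aggregates across compound concentrations.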
On to `CCN(CC1CCCN(CCc2cccc(OC(F)(F)F)c2)C1)C(=O)c1cc2cc(OC(F)(F)F)ccc2[nH]1` (stereo not drawn) [Compound 179], for which the concentration for half-maximal inhibition (IC50) (as a rule, the point on the concentration scale where inhibition reaches its midpoint) was in the range of 4 to 7 µM.

As to `CCN(CC1CCCN(Cc2ccc(OC(F)F)cc2)C1)C(=O)c1cc2cc(OC(F)F)ccc2[nH]1` (stereo not drawn) [Compound 178], the concentration for half-maximal inhibition (IC50) is < 1.5 µM.

For the molecule `CCN(CC1CCN(C(C)(C)Cc2ccc(F)cc2)CC1)C(=O)c1cc2ccccc2[nH]1` [Compound 345], the IC50 lay in the range of 1.5 to 4 µM.

On to `O=C(NCC1CCN(Cc2ccc(F)cc2)CC1)c1cc2ccccc2[nH]1` [compound 294], for which the concentration for half-maximal inhibition (IC50) was > 10 µM.

Turning to `CCN(CC1CCCN(Cc2ccc(Cl)cc2)C1)C(=O)c1cc2c(F)cccc2[nH]1` (stereo not drawn) [Compound 165], the IC50 lay in the range of 1.5 to 4 µM.

As to `CC(C)(Cc1ccccc1)N1CCC(CN(CC(F)(F)F)C(=O)c2cc3ccccc3[nH]2)CC1` [Compound 354], the concentration for half-maximal inhibition (IC50) was < 1.5 µM.

Regarding `CCN(CC1CCCN(Cc2cccc(OC(F)(F)F)c2)C1)C(=O)c1cc2cc(OC(F)(F)F)ccc2[nH]1` (stereo not drawn) [Compound 175], the IC50 was > 10 µM.

For `COc1cccc(CCN2CCCC(CN(Cc3ccccc3)C(=O)c3cc4ccccc4[nH]3)C2)c1` (stereo not drawn) [Compound 218], the half-maximal inhibitory concentration (IC50) was > 10 µM.

For the molecule `COc1cccc(CCN2CCC(CN(CC(F)(F)F)C(=O)c3cc4ccccc4[nH]3)CC2)c1` [compound 307], the IC50 was < 1.5 µM.

Regarding `O=C(NCC1CCN(Cc2ccccc2)CC1)c1cc2ccccc2[nH]1` [compound 295], the concentration for half-maximal inhibition (IC50) fell in the range of 4 to 7 µM.

As for `CCN(CC1CCCN(Cc2ccc(C(=O)OC)cc2)C1)C(=O)c1cc2ccccc2[nH]1` (stereo not drawn) [Compound 212], the IC50 was > 10 µM.

Take `CCN(CC1CCCN(Cc2ccc(Cl)cc2)C1)C(=O)c1cc2cc(F)ccc2[nH]1` (stereo not drawn) [Compound 150]: the IC50 was < 1.5 µM.

For `CC(C)N(CC1CCN(Cc2ccccc2Cl)CC1)C(=O)c1cc2ccccc2[nH]1` [compound 281], the concentration for half-maximal inhibition (IC50) is > 10 µM.

As for `CCN(CC1CCN(Cc2cc3ccccc3o2)CC1)C(=O)c1cc2ccccc2[nH]1` [Compound 327], the half-inhibitory concentration (IC50) was 7 to 9.9 µM.

As for `CCN(CC1CCCN(Cc2ccc(Cl)cc2)C1)C(=O)c1cc2cccc(F)c2[nH]1` (stereo not drawn) [Compound 157], the IC50 is > 10 µM.

Take `CN(CC1CCN(Cc2ccccc2F)CC1)C(=O)c1cc2ccccc2[nH]1` [compound 258]: the IC50 was > 10 µM.

As for `CN(CC1CCN(Cc2ccc(Cl)cc2)CC1)C(=O)c1cc2ccccc2[nH]1` [compound 262], the 50% inhibitory concentration (IC50) is > 10 µM.

`CCN(CC1CCCN(CCc2cccc(OC)c2)C1)C(=O)c1cc2c([nH]1)CCCC2` (stereo not drawn) [Compound 243]: the IC50 is < 1.5 µM.

Consider `CCN(CC1CCN(C(C)(C)Cc2cccc(OC)c2)CC1)C(=O)c1cc2ncccc2[nH]1` [Compound 363], for which the half-maximal inhibitory concentration (IC50) was < 1.5 µM.

With `CCN(CC1CCCN(CC(C)(C)c2cc3ccccc3o2)C1)C(=O)c1cc2ccccc2[nH]1` (stereo not drawn) [Compound 409], the IC50 lay in the range of 1.5 to 4 µM.

For the molecule `COc1cccc(CC(=O)N2CCC(CNC(=O)c3cc4ccccc4[nH]3)CC2)c1` [Compound 322], the 50% inhibitory concentration (IC50) lay in the range of 1.5 to 4 µM.

Take `CCN(CC1CCCN(CCc2cccc(F)c2)C1)C(=O)c1cc2ccccc2[nH]1` (stereo not drawn) [Compound 140]: the 50% inhibitory concentration (IC50) is < 1.5 µM.

As to `CCN(CC1CCNCC1)C(=O)c1cc2ccccc2[nH]1` [Compound 250], the half-maximal inhibitory concentration (IC50) was < 1.5 µM.

Consider `COc1ccc(CC(=O)N2CCC(CNC(=O)c3cc4ccccc4[nH]3)CC2)cc1` [Compound 323], for which the half-maximal inhibitory concentration (IC50) was < 1.5 µM.

Regarding `CCN(CC1CCCN(Cc2ccc(Cl)cc2)C1)C(=O)c1cc2c(F)cc(F)cc2[nH]1` (stereo not drawn) [Compound 169], the IC50 was < 1.5 µM.

In the case of `COc1ccc(CN2CCC(CNC(=O)c3cc4ccccc4[nH]3)CC2)cc1` [compound 274], the IC50 is > 10 µM.

`CCN(CC1CCN(CC(F)(F)c2cccc(OC)c2)CC1)C(=O)c1cc2ccccc2[nH]1` [Compound 412]: the IC50 lay within 1.5 to 4 µM.

Regarding `CCN(CC1CCN(CC(C)(C)c2cc3ccccc3o2)CC1)C(=O)c1cc2ccccc2[nH]1` [Compound 405], the IC50 lay in the range of 4 to 7 µM.

As to `CCN(CC1CCCN(CCc2cccc(OC)c2)C1)C(=O)c1cc(C)c[nH]1` (stereo not drawn) [Compound 229], the half-inhibitory concentration (IC50) fell in the range of 1.5 to 4 µM.

As to `CCN(CC1CCCN(Cc2ccc(C(=O)O)cc2)C1)C(=O)c1cc2ccccc2[nH]1` (stereo not drawn) [Compound 213], the concentration for half-maximal inhibition (IC50) was > 10 µM.

For `CCN(CC1CCN(C(C)(C)c2cc3ccccc3o2)CC1)C(=O)c1cc2ccccc2[nH]1` [Compound 340], the half-maximal inhibitory concentration (IC50) was < 1.5 µM.

As for `CCN(CC1CCCN(C2CCc3ccccc32)C1)C(=O)c1cc2ccccc2[nH]1` (stereo not drawn) [Compound 207], the IC50 is < 1.5 µM.

Turning to `CCN(CC1CCCN(CCc2cccc(OC)c2)C1)C(=O)c1cc2ccccc2s1` (stereo not drawn) [Compound 235], the concentration for half-maximal inhibition (IC50) lay within 1.5 to 4 µM.

For the molecule `CCN(CC1CCCN(Cc2ccc(F)cc2)C1)C(=O)c1cc2ccccc2[nH]1` (stereo not drawn) [Compound 135], the IC50 is < 1.5 µM.

Regarding `CCN(CC1CCN(C(C)(C)Cc2ccc(OC)cc2)CC1)C(=O)c1cc2ccccc2[nH]1` [Compound 344], the IC50 is > 10 µM.

Take `CCN(CC1CCCN(Cc2cccc(F)c2)C1)C(=O)c1cc2ccccc2[nH]1` (stereo not drawn) [Compound 131]: the IC50 was > 10 µM.

Turning to `CCN(CC1CCN(Cc2cccc(F)c2)CC1)C(=O)c1cc2ccccc2[nH]1` [Compound 252], the IC50 is > 10 µM.

As to `CC(C)N(CC1CCN(Cc2ccc(Cl)cc2)CC1)C(=O)c1cc2ccccc2[nH]1` [compound 283], the half-inhibitory concentration (IC50) is > 10 µM.

Take `CCN(CC1CCCN(CCc2cccc(Cl)c2)C1)C(=O)c1cc2ccccc2[nH]1` (stereo not drawn) [Compound 141]: the IC50 was < 1.5 µM.

Consider `CC(C)N(CC1CCN(Cc2ccccc2)CC1)C(=O)c1cc2ccccc2[nH]1` [compound 285], for which the half-maximal inhibitory concentration (IC50) lay within 1.5 to 4 µM.

Turning to `CCN(CC1CCCNC1)C(=O)c1cc2ccc(Cl)cc2[nH]1` (stereo not drawn) [compound 423], the IC50 was < 1.5 µM.

`CCN(CC1CCCN(C2CCc3ccccc3C2)C1)C(=O)c1cc2ccccc2[nH]1` (stereo not drawn) [Compound 208]: the IC50 lay in the range of 4 to 7 µM.

For the molecule `CCN(CC1CCN(CCc2cccc(OC)c2)C1)C(=O)c1cc2ccccc2[nH]1` (stereo not drawn) [Compound 223], the IC50 fell in the range of 1.5 to 4 µM.

As for `CCN(CC1CCCN(CCc2cccc(OC)c2)C1)C(=O)c1coc2ccccc12` (stereo not drawn) [Compound 233], the IC50 is < 1.5 µM.

As for `COc1cccc(CCN2CCCC(CN(C(=O)c3cc4ccccc4[nH]3)C3CCCCC3)C2)c1` (stereo not drawn) [Compound 219], the concentration for half-maximal inhibition (IC50) was < 1.5 µM.

`CCN(CC1CCCN(Cc2ccc(OC)cc2)C1)C(=O)c1cc2cc(OCc3ccccc3)ccc2[nH]1` (stereo not drawn) [Compound 174]: the half-maximal inhibitory concentration (IC50) was 1.5 to 4 µM.

Turning to `CCN(CC1CCCN(CCc2cccc(OC)c2)C1)C(=O)C1Cc2ccccc2N1C` (stereo not drawn) [Compound 239], the IC50 was > 10 µM.

With `CCN(CC1CCCN(CCc2cccc(OC)c2)C1)C(=O)c1cc2ccccc2n1CC` (stereo not drawn) [Compound 238], the IC50 lay in the range of 1.5 to 4 µM.

Turning to `CCN(CC1CCCN(CCc2cccc(OC)c2)C1)C(=O)c1cn(C)c2ccccc12` (stereo not drawn) [Compound 248], the IC50 was < 1.5 µM.

Take `CCN(CC1CCCNC1)C(=O)c1cc2c(F)cccc2[nH]1` (stereo not drawn) [compound 421]: the half-maximal inhibitory concentration (IC50) lay within 4 to 7 µM.

Regarding `CCN(CC1CCCN(C2CCc3ccc(OC)cc3C2)C1)C(=O)c1cc2ccccc2[nH]1` (stereo not drawn) [Compound 210], the 50% inhibitory concentration (IC50) is > 10 µM.

`CCN(CC1CCCN(CC(C)(C)c2cccc(OC(F)(F)F)c2)C1)C(=O)c1cc2cc(OC(F)(F)F)ccc2[nH]1` (stereo not drawn) [Compound 407]: the IC50 was > 10 µM.

`CCN(CC1CCCN(CCc2ccccc2C#N)C1)C(=O)c1cc2ccccc2[nH]1` (stereo not drawn) [Compound 147]: the IC50 is > 10 µM.

In the case of `CCN(CC1CCCNC1)C(=O)c1cc2ccccc2[nH]1` (stereo not drawn) [Compound 413], the half-inhibitory concentration (IC50) is > 10 µM.

Consider `CN(CC1CCN(Cc2ccc(F)cc2)CC1)C(=O)c1cc2ccccc2[nH]1` [compound 269], for which the half-inhibitory concentration (IC50) is > 10 µM.

`O=C(NCC1CCN(Cc2ccc(Cl)cc2)CC1)c1cc2ccccc2[nH]1` [compound 275]: the concentration for half-maximal inhibition (IC50) was > 10 µM.

Consider `COc1ccc(S(=O)(=O)N2CCC(CNC(=O)c3cc4ccccc4[nH]3)CC2)cc1` [Compound 325], for which the half-inhibitory concentration (IC50) was > 10 µM.

`CCN(CC1CCCN(Cc2ccc(OC)cc2)C1)C(=O)c1cc2cc(Cl)ccc2[nH]1` (stereo not drawn) [Compound 161]: the half-maximal inhibitory concentration (IC50) was < 1.5 µM.

The same experiment, now with this note: inhibition of TDP-43 aggregation; PC12 TDP-43^Q331K::eGFP, 1 hour pre-treatment, 15 μM sodium arsenite for 23 hours; 10-point dose response.
On to `CCN(CC1CCCN(Cc2ccc(Cl)cc2)C1)C(=O)c1cc2ccc(Cl)cc2[nH]1` (stereo not drawn) [Compound 167], for which the IC50 is < 1.5 µM.

`CCN(CC1CCCN(C(C)(C)Cc2cccc(Cl)c2)C1)C(=O)c1cc2ccccc2[nH]1` (stereo not drawn) [Compound 335]: the IC50 is < 1.5 µM.
